Data from BindingDB's records for doi:10.1016/0014-2999(86)90335-3 (Janssen Pharmaceutica, 1986).
Several values for one entry are separate records, joined by “and”; a condition that tells them apart may be missing. Equal values may be shown once.

What was measured:
[1] = molecular target: T1, Alpha-2C adrenergic receptor (Rattus norvegicus, UniProt P22086)
T1 sequence (P22086 whole entry): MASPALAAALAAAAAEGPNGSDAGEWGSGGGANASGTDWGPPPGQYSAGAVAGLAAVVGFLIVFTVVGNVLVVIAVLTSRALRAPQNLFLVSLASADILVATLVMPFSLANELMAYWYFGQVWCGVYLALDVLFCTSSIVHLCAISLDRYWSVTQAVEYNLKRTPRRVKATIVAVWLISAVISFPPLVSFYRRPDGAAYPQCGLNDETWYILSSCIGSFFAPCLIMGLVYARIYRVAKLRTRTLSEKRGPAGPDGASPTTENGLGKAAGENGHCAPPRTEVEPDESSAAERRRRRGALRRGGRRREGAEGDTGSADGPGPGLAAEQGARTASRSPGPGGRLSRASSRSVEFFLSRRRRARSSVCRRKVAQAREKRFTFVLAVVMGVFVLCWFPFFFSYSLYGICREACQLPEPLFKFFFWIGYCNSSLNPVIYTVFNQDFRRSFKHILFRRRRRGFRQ

[2] = molecular target: T2, Alpha-1A adrenergic receptor (Rattus norvegicus, UniProt P43140)
T2 sequence (P43140 whole entry): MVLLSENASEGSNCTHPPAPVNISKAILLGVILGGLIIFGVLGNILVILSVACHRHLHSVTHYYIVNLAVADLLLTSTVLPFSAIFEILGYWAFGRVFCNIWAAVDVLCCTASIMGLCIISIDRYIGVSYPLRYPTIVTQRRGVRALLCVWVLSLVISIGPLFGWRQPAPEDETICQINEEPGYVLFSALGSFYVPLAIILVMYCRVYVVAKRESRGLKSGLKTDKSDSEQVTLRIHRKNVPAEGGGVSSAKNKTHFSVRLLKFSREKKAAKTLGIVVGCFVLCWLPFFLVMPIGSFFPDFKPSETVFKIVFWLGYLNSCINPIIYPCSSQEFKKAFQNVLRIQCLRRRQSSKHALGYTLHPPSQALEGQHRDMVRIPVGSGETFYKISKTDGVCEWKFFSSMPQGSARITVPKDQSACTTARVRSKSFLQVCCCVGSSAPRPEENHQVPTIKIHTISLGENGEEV

| Structure (SMILES) | Ki [1] | Ki [2] |
| --- | --- | --- |
| CN1CCN(CC/C=C2/c3ccccc3Sc3ccc(S(=O)(=O)N(C)C)cc32)CC1 [MLS000028463] | 1200 nM and 1400 nM | 25 nM |
| O=C(c1ccc(F)cc1)C1CCN(CCn2c(=S)[nH]c3ccccc3c2=O)CC1 | 290 nM and 200 nM and 280 nM and 71 nM | – |
| c1ccc2c(c1)OCC(C1=NCCN1)O2 (configuration not stated) | – | 1000 nM |
| CN1C[C@H](C(=O)N[C@]2(C)O[C@@]3(O)[C@@H]4CCCN4C(=O)[C@H](Cc4ccccc4)N3C2=O)C=C2c3cccc4[nH]cc(c34)C[C@H]21 [12'-hydroxy-2'-methyl-5'alpha-(phenylmethyl)ergotaman-3',6',18-trione] | 12 nM and 4 nM and 3.5 nM and 6.3 nM | 25 nM |
| O=C(c1ccc(F)cc1)C1CCN(CCCCn2c(=O)[nH]c3ccccc3c2=O)CC1 [CAS_87051-46-5] | 500 nM and 400 nM and 66 nM and 60 nM | 0.45 nM |
| CS(=O)(=O)c1ccc2c(c1)N(CCCN1CCC(C(N)=O)CC1)c1ccccc1S2 [NSC_26388] | – | 2.5 nM |
| Cc1nc2ccccn2c(=O)c1CCN1CCC(C(=O)c2ccc(F)cc2)CC1 | 7.9 nM and 4.5 nM and 18 nM and 20 nM | 20 nM |
| c1ccc(CC2=NCCN2)cc1 [Tolazoline] | 450 nM and 120 nM and 890 nM and 500 nM | 3200 nM |
| Cc1nc2n(c(=O)c1CCN1CCC(C(=O)c3ccc(F)cc3)CC1)CCS2 [CAS_86487-64-1] | – | 32 nM |
| N#Cc1ccc2c(c1)N(CCCN1CCC(O)CC1)c1ccccc1S2 | – | 4.1 nM |
| Cc1ccc2nc(C)c(CCN3CCC(C(=O)c4ccc(F)cc4)CC3)c(=O)n2c1 [CAS_72005] | 10 nM and 2.5 nM and 2.8 nM | 7.9 nM |
